According to patent US20240390298A1, “CYCLOHEXYL BETA-HYDROXY ALKYL AMINES AND MEDICAL USES THEREOF” (ATROGI AB, priority 2021, published 2024):
Counter-ions that a name gives are not always drawn.

Key:
L6-myotubes [1] = assay: Glucose uptake in differentiated L6-myotubes (3H-2-deoxyglucose), compared to isoproterenol; assay type: cell-based; conditions: agonist 1×10^−5 M, 50 nM 3H-2-deoxyglucose
Summary of the method: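 Serum-starved differentiated L6 myotubes stimulated with agonist at 1×10^−5 M for 1 h 40 min, re-dosed in glucose-free medium for 20 min, then given 50 nM ^3H-2-deoxyglucose for 10 min. Uptake read by β-counting of NaOH lysates; activity expressed relative to isoproterenol.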

L6-myotubes [2] = assay: Measurement of intracellular cAMP levels in differentiated L6 cells (alpha screen cAMP kit), compared to isoproterenol; assay type: cell-based; conditions: Rattus norvegicus, L6, 0.25 h, agonist 1×10^−5 M, 15 min, read-out: Biological example 2: intracellular cAMP levels, activity compared to that of isoproterenol
Summary of the method: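 L6 myoblasts were differentiated into myotubes over 7 days in 2% FBS, then serum-starved overnight. Agonist at 1×10^−5 M final was applied for 15 min in HBSS with 1% BSA, 5 mM HEPES and 1 mM IBMX, pH 7.4. After ethanol extraction and lysis, cAMP was quantified by AlphaScreen, with activity expressed relative to isoproterenol.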

| SMILES | Biological example 1: glucose uptake, activity compared to that of isoproterenol (L6-myotubes [1]) | Emax at 10 µM (L6-myotubes [2]) [%] |
| --- | --- | --- |
| CC(C)(NC[C@H](O)c1cccc(F)c1)[C@H]1CC[C@@H](OCC(=O)O)CC1 [Example 128, 2-(((1S,4s)-4-(2-(((R)-2-(3-Fluorophenyl)-2-hydroxyethyl)amino)propan-2-yl)cyclohexyl)oxy)acetic acid] | + + | < 25 |
| CC(C)(C[C@H]1CC[C@@H](C#N)CC1)NC[C@H](O)c1cccc(F)c1 [Example 129, (1S,4s)-4-(2-(((R)-2-(3-Fluorophenyl)-2-hydroxyethyl)amino)-2-methylpropyl)cyclohexane-1-carbonitrile] | + + + | 25 to 50 |
| CC(C)(C[C@H]1CC[C@H](N)CC1)NC[C@@H](O)c1cccc(C#N)n1 [Example 130, 6-((R)-2-((1-((1r,4R)-4-Aminocyclohexyl)-2-methylpropan-2-yl)amino)-1-hydroxyethyl)picolinonitrile trihydrochloride] | + + | < 25 |
| CC(C)(C[C@H]1CC[C@@H](N)CC1)NC[C@@H](O)c1cccc(C#N)n1 [Example 131, 6-((R)-2-((1-((1s,4S)-4-Aminocyclohexyl)-2-methylpropan-2-yl)amino)-1-hydroxyethyl)picolinonitrile trihydrochloride] | + + | < 25 |
| CC(C)(C[C@H]1CC[C@H](N)CC1)NC[C@H](O)c1cccc(C#N)n1 [Example 132, 6-((S)-2-((1-((1r,4S)-4-Aminocyclohexyl)-2-methylpropan-2-yl)amino)-1-hydroxyethyl)picolinonitrile trihydrochloride] | + + + | 25 to 50 |
| CC(C)(C[C@H]1CC[C@@H](NC(=O)OC(C)(C)C)CC1)NC[C@H](O)c1cccc(C#N)n1 [Example 133, tert-Butyl ((1R,4s)-4-(2-(((5)-2-(6-Cyanopyridin-2-yl)-2-hydroxyethyl)-amino)-2-methylpropyl)cyclohexyl)carbamate] | + + | < 25 |
| CC(C)(C[C@H]1CC[C@@H](N)CC1)NC[C@H](O)c1cccc(C#N)n1 [Example 134, 6-((S)-2-((1-((1s,4R)-4-Aminocyclohexyl)-2-methylpropan-2-yl)amino)-1-hydroxyethyl)picolinonitrile trihydrochloride] | + + | < 25 |
| CC(=O)N[C@H]1CC[C@H](CC(C)(C)NC[C@@H](O)c2cccc(C#N)n2)CC1 [Example 135, N-((1R,4r)-4-(2-(((R)-2-(6-Cyanopyridin-2-yl)-2-hydroxyethyl)amino)-2-methylpropyl)cyclohexyl)acetamide] | + + | < 25 |
| CC(C)(C[C@H]1CC[C@H](NS(C)(=O)=O)CC1)NC[C@@H](O)c1cccc(C#N)n1 [Example 136, N-((1R,4r)-4-(2-(((R)-2-(6-Cyanopyridin-2-yl)-2-hydroxyethyl)amino)-2-methylpropyl)cyclohexyl)methanesulfonamide] | + + | < 25 |
| CC(=O)N[C@H]1CC[C@@H](CC(C)(C)NC[C@@H](O)c2cccc(C#N)n2)CC1 [Example 137, N-((1S,4s)-4-(2-(((R)-2-(6-Cyanopyridin-2-yl)-2-hydroxyethyl)amino)-2-methylpropyl)cyclohexyl)acetamide] | + + | < 25 |
| CC(C)(C[C@H]1CC[C@@H](NS(C)(=O)=O)CC1)NC[C@@H](O)c1cccc(C#N)n1 [Example 138, N-((1S,4s)-4-(2-(((R)-2-(6-Cyanopyridin-2-yl)-2-hydroxyethyl)amino)-2-methylpropyl)cyclohexyl)methanesulfonamide] | + + | < 25 |
| CC(=O)N[C@H]1CC[C@H](CC(C)(C)NC[C@H](O)c2cccc(C#N)n2)CC1 [Example 139, N-((1S,4r)-4-(2-(((S)-2-(6-Cyanopyridin-2-yl)-2-hydroxyethyl)amino)-2-methylpropyl)cyclohexyl)acetamide] | + + + | 25 to 50 |
| CC(C)(C[C@H]1CC[C@H](NS(C)(=O)=O)CC1)NC[C@H](O)c1cccc(C#N)n1 [Example 140, N-((1S,4r)-4-(2-(((S)-2-(6-Cyanopyridin-2-yl)-2-hydroxyethyl)amino)-2-methylpropyl)cyclohexyl)methanesulfonamide] | + + + | < 25 |
| CC(=O)N[C@H]1CC[C@@H](CC(C)(C)NC[C@H](O)c2cccc(C#N)n2)CC1 [Example 141, N-((1R,4s)-4-(2-(((S)-2-(6-Cyanopyridin-2-yl)-2-hydroxyethyl)amino)-2-methylpropyl)cyclohexyl)acetamide] | + + + | < 25 |
| CC(C)(C[C@H]1CC[C@@H](NS(C)(=O)=O)CC1)NC[C@H](O)c1cccc(C#N)n1 [Example 142, N-((1R,4s)-4-(2-(((S)-2-(6-Cyanopyridin-2-yl)-2-hydroxyethyl)amino)-2-methylpropyl)cyclohexyl)methanesulfonamide] | + + + | < 25 |
| CC(=O)N[C@H]1CC[C@@H](CC(C)(C)NC[C@H](O)c2cccnc2C)CC1 [Example 143, N-((1S,4s)-4-(2-(((R)—H-hydroxy-2-(2-methylpyridin-3-yl)ethyl)amino)-2-methylpropyl)cyclohexyl)acetamide dihydrochloride] | + + + | < 25 |
| Cc1ncccc1[C@@H](O)CNC(C)(C)C[C@H]1CC[C@@H](NS(C)(=O)=O)CC1 [Example 144, N-((1S,4s)-4-(2-(((R)-2-Hydroxy-2-(2-methylpyridin-3-yl)ethyl)amino)-2-methylpropyl)cyclohexyl)methanesulfonamide dihydrochloride] | + + | < 25 |
| CC(=O)N[C@H]1CC[C@H](CC(C)(C)NC[C@H](O)c2cccnc2C)CC1.Cl [Example 145, N-((1R,4r)-4-(2-(((R)-2-Hydroxy-2-(2-methylpyridin-3-yl)ethyl)amino)-2-methylpropyl)cyclohexyl)acetamide dihydrochloride] | + + + | < 25 |
| Cc1ncccc1[C@@H](O)CNC(C)(C)C[C@H]1CC[C@H](NS(C)(=O)=O)CC1 [Example 146, N-((1R,4r)-4-(2-(((R)-2Hydroxy-2-(2-methylpyridin-3-yl)ethyl)amino)-2-methylpropyl)cyclohexyl)methanesulfonamide dihydrochloride] | + + | < 25 |
| CC(C)(C[C@H]1CC[C@@H](NC(=O)OC(C)(C)C)CC1)NC[C@H](O)c1cccc(C(F)(F)F)n1 [Example 147, tert-Butyl ((1R,4s)-4-(2-(((S)-2-hydroxy-2-(6-(trifluoromethyl)pyridin-2-yl)ethyl)amino)-2-methylpropyl)cyclohexyl)carbamate] | + + | < 25 |
| CC(C)(C[C@H]1CC[C@H](NC(=O)OC(C)(C)C)CC1)NC[C@H](O)c1cccc(C(F)(F)F)n1 [Example 148, tert-Butyl ((1S,4r)-4-(2-(((S)-2-hydroxy-2-(6-(trifluoromethyl)pyridin-2-yl)ethyl)amino)-2-methylpropyl)cyclohexyl)carbamate] | + + + | < 25 |
| CC(=O)N[C@H]1CC[C@@H](CC(C)(C)NC[C@H](O)c2cccc(C(F)(F)F)n2)CC1 [Example 149, N-((1R,4s)-4-(2-(((S)-2-Hydroxy-2-(6-(trifluoromethyl)pyridin-2-yl)-ethyl)amino)-2-methylpropyl)cyclohexyl)acetamide dihydrochloride] | + + | < 25 |
| CC(C)(C[C@H]1CC[C@@H](NS(C)(=O)=O)CC1)NC[C@H](O)c1cccc(C(F)(F)F)n1 [Example 150, N-((1R,4s)-4-(2-(((S)-2-Hydroxy-2-(6-(trifluoromethyl)pyridin-2-yl)ethyl)-amino)-2-methylpropyl)cyclohexyl)methanesulfonamide dihydrochloride] | + + + | < 25 |
| CC(=O)N[C@H]1CC[C@H](CC(C)(C)NC[C@H](O)c2cccc(C(F)(F)F)n2)CC1 [Example 151, N-((1S,4r)-4-(2-(((S)-2-Hydroxy-2-(6-(trifluoromethyl)pyridin-2-yl)-ethyl)amino)-2-methylpropyl)cyclohexyl)acetamide dihydrochloride] | + + + | < 25 |
| CC(C)(C[C@H]1CC[C@H](NS(C)(=O)=O)CC1)NC[C@H](O)c1cccc(C(F)(F)F)n1 [Example 152, N-((1S,4r)-4-(2-(((S)-2-Hydroxy-2-(6-(trifluoromethyl)pyridin-2-yl)-ethyl)amino)-2-methylpropyl)cyclohexyl)methanesulfonamide dihydrochloride] | + + | < 25 |
